Source: ChEMBL document CHEMBL4842340, “Development of Cagrilintide, a Long-Acting Amylin Analogue” (J Med Chem, 2021)
≈ marks a conversion by molar mass, not a printed value. *1 amine or outer side, *2 acyl side, *3 side chain or, on linkers, in order; H or OH if unused. Where a SMILES comes first, the peptide text is derived from it. Bridges are numbered along the chain shown (N, C = ends). The star is where a group is joined. C20 diacid = O=C(O)CCCCCCCCCCCCCCCCCCC(=O)*; γGlu = O=C(O)[C@H](CCC(=O)[*:2])N[*:1]

Assays:
[1] = Agonist activity at rat AMY3R (CT+RAMP3) expressed in tk-ts13 cells assessed as increase in intracellular cAMP level incuabted for 25 mins by CRE luciferase reporter gene assay; assay type: cell-based; details: tk-ts13, 25 min
[2] = Solubility of the compound in lactate at pH 4 by UPLC analysis; assay type: physicochemical; details: lactate buffer
[3] = target: Insulin (Homo sapiens) (UniProt P01308); test: Effect on insulin (unknown origin) amyloid fibril formation assessed as peptide recovery in glycyl-glycine buffer at pH 4 measured after 45 hrs by thioflavin-T fluorescence assay relative to control; parameters: concentration or dose not given beside the values
Chain of Insulin (Homo sapiens) (P01308 whole entry): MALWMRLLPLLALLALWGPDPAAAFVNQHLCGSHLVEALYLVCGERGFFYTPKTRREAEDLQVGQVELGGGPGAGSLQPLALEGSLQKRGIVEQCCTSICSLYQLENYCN

[4] = Solubility of the compound in lactate at pH 5 by UPLC analysis; assay type: physicochemical; details: lactate buffer
[5] = Agonist activity at rat calcitonin receptor expressed in BHK-13 cells assessed as increase in intracellular cAMP concentration incubated for 25 mins by CRE luciferase reporter gene assay; assay type: cell-based; details: BHK-13, 25 min
[6] = Solubility of the compound in lactate at pH 3 by UPLC analysis; assay type: physicochemical; details: lactate buffer
[7] = Solubility of the compound in bis-tris propane at pH 7 by UPLC analysis; assay type: physicochemical; details: bis-tris propane buffer
[8] = species: Rattus norvegicus; test: Ratio of EC50 for rat calcitonin receptor expressed in BHK-13 cells to EC50 for rat AMY3R (CT+RAMP3) expressed in tk-ts13 cells; assay type: cell-based
[9] = tested on: Rattus norvegicus; test: Reduction in food intake in Sprague-Dawley rat at 3 nmol/kg, sc administered as single dose measured upto 24 hrs relative to control; assay type: functional; parameters: scale not given: the % may be the effect or the level left; details: time hrs <=24
[10] = species: Homo sapiens; test: Ratio of EC50 for human calcitonin receptor expressed in BHK570 cells to EC50 for human AMY3R (CT+RAMP3) expressed in Hollex1 cells; assay type: cell-based
[11] = Agonist activity at human calcitonin receptor expressed in BHK570 cells assessed as increase in intracellular cAMP concentration incubated for 3 hrs in absence of albumin by CRE luciferase reporter gene assay; assay type: cell-based; details: BHK570, 3 h
[12] = tested on: Rattus norvegicus; test: Reduction in food intake in Sprague-Dawley rat at 3 nmol/kg, sc administered as single dose measured after 24 to 48 hrs relative to control; assay type: functional; parameters: scale not given: the % may be the effect or the level left; details: time 24-48 hrs
[13] = Agonist activity at human AMY3R (CT+RAMP3) expressed in Hollex1 cells incubated for 3 hrs by luminescence assay; assay type: cell-based; details: Hollex1, 3 h
[14] = Solubility of the compound in bis-tris propane at pH 7.5 by UPLC analysis; assay type: physicochemical; details: bis-tris propane buffer
[15] = target: Insulin (Homo sapiens) (UniProt P01308); test: Effect on insulin (unknown origin) amyloid fibril formation assessed as lag time in HEPES buffer at pH 7.5 measured after 45 hrs by thioflavin-T fluorescence assay
[16] = Solubility of the compound in bis-tris propane at pH 6 by UPLC analysis; assay type: physicochemical; details: bis-tris propane buffer
[17] = Solubility of the compound in bis-tris propane at pH 8 by UPLC analysis; assay type: physicochemical; details: bis-tris propane buffer
[18] = Solubility of the compound in bis-tris propane at pH 6.5 by UPLC analysis; assay type: physicochemical; details: bis-tris propane buffer
[19] = target: Insulin (Homo sapiens) (UniProt P01308); test: Effect on insulin (unknown origin) amyloid fibril formation assessed as lag time in glycyl-glycine buffer at pH 4 measured after 45 hrs by thioflavin-T fluorescence assay
[20] = target: Insulin (Homo sapiens) (UniProt P01308); test: Effect on insulin (unknown origin) amyloid fibril formation assessed as peptide recovery in HEPES buffer at pH 7.5 measured after 45 hrs by thioflavin-T fluorescence assay relative to control
[21] = Displacement of [125I]-amylin from rat AMY3R (CTR+RAMP3) expressed in BHK-13 cells measured after 120 mins by scintillation proximity assay; assay type: cell-based
[22] = Displacement of [125I]-amylin from human AMY3R (CTR+RAMP3) expressed in BHK-13 cells measured after 120 mins by scintillation proximity assay; assay type: cell-based
[23] = species: Rattus norvegicus; test: Ratio of IC50 for displacement of [125I]-calcitonin from rat calcitonin receptor expressed in tk-ts 13 cells to IC50 for displacement of [125I]-amylin from rat AMY3R (CTR+RAMP3) expressed in BHK-13 cells; assay type: cell-based
[24] = Displacement of [125I]-calcitonin from rat calcitonin receptor expressed in tk-ts 13 cells measured after 120 mins by scintillation proximity assay; assay type: cell-based; details: tk-ts13
[25] = species: Homo sapiens; test: Ratio of IC50 for displacement of [125I]-calcitonin from human calcitonin receptor expressed in tk-ts 13 cells to IC50 for displacement of [125I]-amylin from human AMY3R (CTR+RAMP3) expressed in BHK-13 cells; assay type: cell-based
[26] = Displacement of [125I]-calcitonin from human calcitonin receptor expressed in tk-ts 13 cells measured after 120 mins by scintillation proximity assay; assay type: cell-based; details: tk-ts13

| EC50 [1] | solubility [2] | Activity [3] | solubility [4] | EC50 [5] | solubility [6] | solubility [7] | EC50 [11] | EC50 [13] | solubility [14] | TIME [15] | solubility [16] | solubility [17] | solubility [18] | TIME [19] | Activity [20] | Compound | Ratio EC50 [8] | Activity [9] | Ratio EC50 [10] | Activity [12] | also measured |
| --- | --- | --- | --- | --- | --- | --- | --- | --- | --- | --- | --- | --- | --- | --- | --- | --- | --- | --- | --- | --- | --- |
| 623 pM | 200 µM (≈ 922 µg/mL) | 35% | 200 µM (≈ 922 µg/mL) | 4970 pM | 200 µM (≈ 922 µg/mL) | 200 µM (≈ 922 µg/mL) | 347 pM | 297 pM | 200 µM (≈ 922 µg/mL) | 4 h | 200 µM (≈ 922 µg/mL) | 200 µM (≈ 922 µg/mL) | 200 µM (≈ 922 µg/mL) | 16 h |  | CC[C@H](C)[C@H](NC(=O)[C@@H]1CCCN1C(=O)CNC(=O)[C@H](Cc1ccccc1)NC(=O)[C@H](CC(N)=O)NC(=O)[C@H](CC(N)=O)NC(=O)[C@H](CO)NC(=O)[C@H](CO)NC(=O)[C@H](Cc1c[nH]cn1)NC(=O)[C@H](Cc1cnc[nH]1)NC(=O)[C@H](CC(C)C)NC(=O)[C@H](Cc1ccccc1)NC(=O)[C@H](CCC(=O)O)NC(=O)[C@H](C)NC(=O)[C@H](CC(C)C)NC(=O)[C@H](CCCNC(=N)N)NC(=O)[C@H](CCC(N)=O)NC(=O)[C@@H](NC(=O)[C@H](C)NC(=O)[C@@H]1CSSC[C@H](NC(=O)[C@H](CCCCN)NC(=O)CC[C@H](NC(=O)CC[C@H](NC(=O)CCCCCCCCCCCCCCCCCCC(=O)O)C(=O)O)C(=O)O)C(=O)N[C@@H](CC(N)=O)C(=O)N[C@@H]([C@@H](C)O)C(=O)N[C@@H](C)C(=O)N[C@@H]([C@@H](C)O)C(=O)N1)[C@@H](C)O)C(=O)N[C@@H](CC(C)C)C(=O)N1CCC[C@H]1C(=O)N1CCC[C@H]1C(=O)N[C@H](C(=O)N[C@@H](CC(N)=O)C(=O)N[C@H](C(=O)NCC(=O)N[C@@H](CO)C(=O)N[C@@H](Cc1cnc[nH]1)C(=O)N[C@H](C(=O)N[C@@H](Cc1ccc(O)cc1)C(N)=O)[C@@H](C)O)C(C)C)[C@@H](C)O ({C20 diacid-γGlu-γGlu}-KCNTATCATQRLAEFLHHSSNNFGPILPPTNVGSHTY-NH2; disulfide 2-7) | 8 | 46% | 1 | 21% |  |
| 278 pM |  | 57% | 5 µM (≈ 22.2 µg/mL) | 1580 pM | 200 µM (≈ 886 µg/mL) | 200 µM (≈ 886 µg/mL) | 180 pM | 166 pM | 200 µM (≈ 886 µg/mL) | 45 h | 200 µM (≈ 886 µg/mL) | 200 µM (≈ 886 µg/mL) | 200 µM (≈ 886 µg/mL) | 45 h | 94% | CC[C@H](C)[C@H](NC(=O)[C@@H]1CCCN1C(=O)CNC(=O)[C@H](Cc1ccccc1)NC(=O)[C@H](CO)NC(=O)[C@H](CO)NC(=O)[C@H](CO)NC(=O)[C@H](CO)NC(=O)[C@H](CCCNC(=N)N)NC(=O)[C@H](Cc1cnc[nH]1)NC(=O)[C@H](CC(C)C)NC(=O)[C@H](Cc1ccccc1)NC(=O)[C@H](CCC(=O)O)NC(=O)[C@H](C)NC(=O)[C@H](CC(C)C)NC(=O)[C@H](CCCNC(=N)N)NC(=O)[C@H](CCC(N)=O)NC(=O)[C@@H](NC(=O)[C@H](C)NC(=O)[C@@H]1CSSC[C@H](NC(=O)[C@H](Cc2cnc[nH]2)NC(=O)CC[C@H](NC(=O)CCCCCCCCCCCCCCCCCCC(=O)O)C(=O)O)C(=O)N[C@@H](CC(N)=O)C(=O)N[C@@H]([C@@H](C)O)C(=O)N[C@@H](C)C(=O)N[C@@H]([C@@H](C)O)C(=O)N1)[C@@H](C)O)C(=O)N[C@@H](CC(C)C)C(=O)N1CCC[C@H]1C(=O)N1CCC[C@H]1C(=O)N[C@H](C(=O)N[C@@H](CC(=O)O)C(=O)N[C@H](C(=O)NCC(=O)N[C@@H](CO)C(=O)N[C@@H](CC(=O)O)C(=O)N[C@H](C(=O)N[C@@H](Cc1ccc(O)cc1)C(N)=O)[C@@H](C)O)C(C)C)[C@@H](C)O ({C20 diacid-γGlu}-HCNTATCATQRLAEFLHRSSSSFGPILPPTDVGSDTY-NH2; disulfide 2-7) | 6 |  | 1 |  |  |
| 158 pM | 200 µM (≈ 878 µg/mL) | 92% | 200 µM (≈ 878 µg/mL) | 76 pM | 200 µM (≈ 878 µg/mL) | 200 µM (≈ 878 µg/mL) | 52 pM | 61 pM | 200 µM (≈ 878 µg/mL) | 11 h | 200 µM (≈ 878 µg/mL) | 200 µM (≈ 878 µg/mL) | 200 µM (≈ 878 µg/mL) | 45 h | 19% | CC[C@H](C)[C@H](NC(=O)[C@@H]1CCCN1C(=O)CNC(=O)[C@H](Cc1ccccc1)NC(=O)[C@H](CC(N)=O)NC(=O)[C@H](CC(N)=O)NC(=O)[C@H](CO)NC(=O)[C@H](CO)NC(=O)[C@H](Cc1c[nH]cn1)NC(=O)[C@H](Cc1cnc[nH]1)NC(=O)[C@H](CC(C)C)NC(=O)[C@H](Cc1ccccc1)NC(=O)[C@H](CCC(=O)O)NC(=O)[C@H](C)NC(=O)[C@H](CC(C)C)NC(=O)[C@H](CCCNC(=N)N)NC(=O)[C@H](CCC(N)=O)NC(=O)[C@@H](NC(=O)[C@H](C)NC(=O)[C@@H]1CSSC[C@H](NC(=O)[C@H](CCCCN)NC(=O)CC[C@H](NC(=O)CCCCCCCCCCCCCCCCCCC(=O)O)C(=O)O)C(=O)N[C@@H](CC(N)=O)C(=O)N[C@@H]([C@@H](C)O)C(=O)N[C@@H](C)C(=O)N[C@@H]([C@@H](C)O)C(=O)N1)[C@@H](C)O)C(=O)N[C@@H](CC(C)C)C(=O)N1CCC[C@H]1C(=O)N1CCC[C@H]1C(=O)N[C@H](C(=O)N[C@@H](CC(N)=O)C(=O)N[C@H](C(=O)NCC(=O)N[C@@H](CO)C(=O)N[C@@H](CC(N)=O)C(=O)N[C@H](C(=O)N1CCC[C@H]1C(N)=O)[C@@H](C)O)C(C)C)[C@@H](C)O ({C20 diacid-γGlu}-KCNTATCATQRLAEFLHHSSNNFGPILPPTNVGSNTP-NH2; disulfide 2-7) |  | 62% | 1 | 74% | IC50 [21]: 27 pM; IC50 [22]: 186 pM; Ratio IC50 [23]: 1; IC50 [24]: 18 pM; Ratio IC50 [25]: 1; IC50 [26]: 115 pM |
